Assay results from patent US11208412B2 (DAEGU-GYEONGBUK MEDICAL INNOVATION FOUNDATION, priority 2017, dated 2021).

Legend:
Assay in all cases: Kinase selectivity, DiscoverX scanMAX Kinase assay panel (% control)
Assay type in all cases: binding
[1] = target: T1, kinases of the scanMAX Kinase assay panel (Homo sapiens, UniProt Q13163); conditions: MEK5; 1 uM
T1 construct: purchased DiscoverX Co. (contract measurement) scanMAX Kinase assay panel
T1 sequence (Q13163 1-448): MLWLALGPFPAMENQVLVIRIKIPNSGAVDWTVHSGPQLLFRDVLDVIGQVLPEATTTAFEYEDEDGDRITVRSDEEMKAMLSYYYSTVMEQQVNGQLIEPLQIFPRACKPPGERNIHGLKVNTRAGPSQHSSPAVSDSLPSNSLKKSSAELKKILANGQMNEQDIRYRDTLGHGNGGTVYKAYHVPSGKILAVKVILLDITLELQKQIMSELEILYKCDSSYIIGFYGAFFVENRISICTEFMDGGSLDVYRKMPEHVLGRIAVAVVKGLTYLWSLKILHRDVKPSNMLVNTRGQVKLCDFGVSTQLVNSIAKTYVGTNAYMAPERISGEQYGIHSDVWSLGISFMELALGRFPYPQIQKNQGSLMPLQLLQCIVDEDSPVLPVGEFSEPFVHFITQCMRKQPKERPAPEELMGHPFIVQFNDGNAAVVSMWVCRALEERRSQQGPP
Method in brief: (§1)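 Compounds were tested at 1 uM (in DMSO) against each panel kinase. % control was calculated as (compound − positive control)/(negative control − positive control)×100, where the positive control gives 0% and DMSO gives 100%. Activity toward a kinase was called at % control <35%.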

[2] = target: T2, kinases of the scanMAX Kinase assay panel (Homo sapiens, UniProt P00519, F317I); conditions: 1 uM
T2 construct: purchased DiscoverX Co. (contract measurement) scanMAX Kinase assay panel
Method in brief: as §1

[3] = target: T3, kinases of the scanMAX Kinase assay panel (Homo sapiens, UniProt Q5VT25); conditions: MRCKA; 1 uM
T3 construct: purchased DiscoverX Co. (contract measurement) scanMAX Kinase assay panel
Method in brief: as §1

[4] = target: T4, kinases of the scanMAX Kinase assay panel (Homo sapiens, UniProt P49761); conditions: CLK3; 1 uM
T4 construct: purchased DiscoverX Co. (contract measurement) scanMAX Kinase assay panel
Method in brief: as §1

[5] = target: T5, kinases of the scanMAX Kinase assay panel (Homo sapiens, UniProt P00533, DEL746-750); conditions: EGFR(E746-A750de1); 1 uM
T5 construct: purchased DiscoverX Co. (contract measurement) scanMAX Kinase assay panel
Method in brief: as §1

[6] = target: T6, kinases of the scanMAX Kinase assay panel (Homo sapiens, UniProt Q96RR4); conditions: CAMKK2; 1 uM
T6 construct: purchased DiscoverX Co. (contract measurement) scanMAX Kinase assay panel
Method in brief: as §1

[7] = target: T7, kinases of the scanMAX Kinase assay panel (Homo sapiens, UniProt P42685); conditions: FRK; 1 uM
T7 construct: purchased DiscoverX Co. (contract measurement) scanMAX Kinase assay panel
Method in brief: as §1

[8] = target: T8, kinases of the scanMAX Kinase assay panel (Homo sapiens, UniProt P07949); conditions: kinase RET; 1 uM in DMSO
T8 construct: purchased DiscoverX Co. (contract measurement) scanMAX Kinase assay panel
Method in brief: as §1

[9] = target: T9, kinases of the scanMAX Kinase assay panel (Homo sapiens, UniProt Q86Y07); conditions: kinase VRK2; 1 uM in DMSO
T9 construct: purchased DiscoverX Co. (contract measurement) scanMAX Kinase assay panel
Method in brief: as §1

[10] = target: T10, kinases of the scanMAX Kinase assay panel (Homo sapiens, UniProt P52333); conditions: JAK3(JH1domain-catalytic); 1 uM
T10 construct: purchased DiscoverX Co. (contract measurement) scanMAX Kinase assay panel
T10 sequence (P52333 1-1124): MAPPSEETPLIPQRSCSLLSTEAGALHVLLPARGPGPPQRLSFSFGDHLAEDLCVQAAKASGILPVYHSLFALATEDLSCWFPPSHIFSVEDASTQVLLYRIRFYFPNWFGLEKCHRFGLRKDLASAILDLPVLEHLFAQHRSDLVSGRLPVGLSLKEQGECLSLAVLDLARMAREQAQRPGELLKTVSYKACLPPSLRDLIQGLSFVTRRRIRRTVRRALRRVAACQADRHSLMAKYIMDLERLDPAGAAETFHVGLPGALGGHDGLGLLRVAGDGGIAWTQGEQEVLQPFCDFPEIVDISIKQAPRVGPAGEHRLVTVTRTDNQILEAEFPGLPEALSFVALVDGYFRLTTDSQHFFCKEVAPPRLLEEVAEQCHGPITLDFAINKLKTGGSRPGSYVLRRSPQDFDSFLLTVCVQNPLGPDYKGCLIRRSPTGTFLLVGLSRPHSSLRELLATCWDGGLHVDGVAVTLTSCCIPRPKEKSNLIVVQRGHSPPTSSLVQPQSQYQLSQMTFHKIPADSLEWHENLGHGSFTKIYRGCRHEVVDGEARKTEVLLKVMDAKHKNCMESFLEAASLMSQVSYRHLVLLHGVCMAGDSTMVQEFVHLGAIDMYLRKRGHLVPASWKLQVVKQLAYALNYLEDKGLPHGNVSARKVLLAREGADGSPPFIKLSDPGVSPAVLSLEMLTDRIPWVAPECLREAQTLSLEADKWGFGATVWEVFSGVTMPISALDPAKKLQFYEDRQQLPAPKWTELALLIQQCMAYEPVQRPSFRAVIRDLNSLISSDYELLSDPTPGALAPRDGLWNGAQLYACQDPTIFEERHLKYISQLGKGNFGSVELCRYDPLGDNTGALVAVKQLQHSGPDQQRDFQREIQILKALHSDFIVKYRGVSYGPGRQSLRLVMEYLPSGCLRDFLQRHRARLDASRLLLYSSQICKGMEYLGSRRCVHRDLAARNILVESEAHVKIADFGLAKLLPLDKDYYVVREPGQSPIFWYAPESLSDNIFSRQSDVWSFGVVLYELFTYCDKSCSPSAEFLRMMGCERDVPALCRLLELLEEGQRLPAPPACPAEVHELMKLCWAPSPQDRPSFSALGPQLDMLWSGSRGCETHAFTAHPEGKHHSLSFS
Method in brief: as §1

T4 sequence (P49761 whole entry): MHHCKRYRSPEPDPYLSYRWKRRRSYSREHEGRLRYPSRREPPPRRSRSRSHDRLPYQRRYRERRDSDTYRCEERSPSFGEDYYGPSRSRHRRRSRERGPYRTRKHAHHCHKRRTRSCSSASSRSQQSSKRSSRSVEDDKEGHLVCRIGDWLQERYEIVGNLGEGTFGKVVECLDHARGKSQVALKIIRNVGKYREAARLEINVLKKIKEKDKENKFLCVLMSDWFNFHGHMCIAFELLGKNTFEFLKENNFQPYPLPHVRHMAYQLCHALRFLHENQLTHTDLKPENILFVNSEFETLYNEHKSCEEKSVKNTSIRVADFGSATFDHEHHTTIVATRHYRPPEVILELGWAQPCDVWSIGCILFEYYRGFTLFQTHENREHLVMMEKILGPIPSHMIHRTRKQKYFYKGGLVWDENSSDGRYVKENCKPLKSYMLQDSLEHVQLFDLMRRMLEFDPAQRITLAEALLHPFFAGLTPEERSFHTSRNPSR
T2 sequence (P00519 whole entry F317I): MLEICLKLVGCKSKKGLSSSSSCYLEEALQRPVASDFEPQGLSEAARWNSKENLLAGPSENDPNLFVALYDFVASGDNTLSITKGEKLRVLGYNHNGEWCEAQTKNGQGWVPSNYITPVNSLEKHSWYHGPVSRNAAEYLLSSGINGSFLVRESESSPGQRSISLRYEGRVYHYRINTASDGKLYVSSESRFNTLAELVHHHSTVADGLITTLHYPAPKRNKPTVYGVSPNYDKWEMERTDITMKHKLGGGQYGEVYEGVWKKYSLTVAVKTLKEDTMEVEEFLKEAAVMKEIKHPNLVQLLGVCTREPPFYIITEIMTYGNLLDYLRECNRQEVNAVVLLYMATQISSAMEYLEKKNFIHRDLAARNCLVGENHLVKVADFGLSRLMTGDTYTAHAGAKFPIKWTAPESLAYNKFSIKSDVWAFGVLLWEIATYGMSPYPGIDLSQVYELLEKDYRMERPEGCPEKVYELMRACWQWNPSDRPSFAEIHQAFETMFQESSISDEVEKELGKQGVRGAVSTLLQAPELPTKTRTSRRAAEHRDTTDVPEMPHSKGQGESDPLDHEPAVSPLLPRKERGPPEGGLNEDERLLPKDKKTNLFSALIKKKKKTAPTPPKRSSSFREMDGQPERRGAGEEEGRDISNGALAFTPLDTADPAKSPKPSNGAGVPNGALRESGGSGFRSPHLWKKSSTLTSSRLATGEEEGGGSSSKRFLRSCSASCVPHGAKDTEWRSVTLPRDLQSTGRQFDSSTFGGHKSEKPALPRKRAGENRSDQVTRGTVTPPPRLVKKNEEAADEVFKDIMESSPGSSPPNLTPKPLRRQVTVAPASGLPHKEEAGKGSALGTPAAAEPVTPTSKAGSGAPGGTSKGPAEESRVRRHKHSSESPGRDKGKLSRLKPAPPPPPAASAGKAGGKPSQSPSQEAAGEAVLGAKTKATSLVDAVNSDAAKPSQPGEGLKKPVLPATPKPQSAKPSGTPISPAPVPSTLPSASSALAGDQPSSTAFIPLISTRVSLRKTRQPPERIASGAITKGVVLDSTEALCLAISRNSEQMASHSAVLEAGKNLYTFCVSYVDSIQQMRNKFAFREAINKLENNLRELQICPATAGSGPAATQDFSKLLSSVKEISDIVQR
T3 sequence (Q5VT25 whole entry): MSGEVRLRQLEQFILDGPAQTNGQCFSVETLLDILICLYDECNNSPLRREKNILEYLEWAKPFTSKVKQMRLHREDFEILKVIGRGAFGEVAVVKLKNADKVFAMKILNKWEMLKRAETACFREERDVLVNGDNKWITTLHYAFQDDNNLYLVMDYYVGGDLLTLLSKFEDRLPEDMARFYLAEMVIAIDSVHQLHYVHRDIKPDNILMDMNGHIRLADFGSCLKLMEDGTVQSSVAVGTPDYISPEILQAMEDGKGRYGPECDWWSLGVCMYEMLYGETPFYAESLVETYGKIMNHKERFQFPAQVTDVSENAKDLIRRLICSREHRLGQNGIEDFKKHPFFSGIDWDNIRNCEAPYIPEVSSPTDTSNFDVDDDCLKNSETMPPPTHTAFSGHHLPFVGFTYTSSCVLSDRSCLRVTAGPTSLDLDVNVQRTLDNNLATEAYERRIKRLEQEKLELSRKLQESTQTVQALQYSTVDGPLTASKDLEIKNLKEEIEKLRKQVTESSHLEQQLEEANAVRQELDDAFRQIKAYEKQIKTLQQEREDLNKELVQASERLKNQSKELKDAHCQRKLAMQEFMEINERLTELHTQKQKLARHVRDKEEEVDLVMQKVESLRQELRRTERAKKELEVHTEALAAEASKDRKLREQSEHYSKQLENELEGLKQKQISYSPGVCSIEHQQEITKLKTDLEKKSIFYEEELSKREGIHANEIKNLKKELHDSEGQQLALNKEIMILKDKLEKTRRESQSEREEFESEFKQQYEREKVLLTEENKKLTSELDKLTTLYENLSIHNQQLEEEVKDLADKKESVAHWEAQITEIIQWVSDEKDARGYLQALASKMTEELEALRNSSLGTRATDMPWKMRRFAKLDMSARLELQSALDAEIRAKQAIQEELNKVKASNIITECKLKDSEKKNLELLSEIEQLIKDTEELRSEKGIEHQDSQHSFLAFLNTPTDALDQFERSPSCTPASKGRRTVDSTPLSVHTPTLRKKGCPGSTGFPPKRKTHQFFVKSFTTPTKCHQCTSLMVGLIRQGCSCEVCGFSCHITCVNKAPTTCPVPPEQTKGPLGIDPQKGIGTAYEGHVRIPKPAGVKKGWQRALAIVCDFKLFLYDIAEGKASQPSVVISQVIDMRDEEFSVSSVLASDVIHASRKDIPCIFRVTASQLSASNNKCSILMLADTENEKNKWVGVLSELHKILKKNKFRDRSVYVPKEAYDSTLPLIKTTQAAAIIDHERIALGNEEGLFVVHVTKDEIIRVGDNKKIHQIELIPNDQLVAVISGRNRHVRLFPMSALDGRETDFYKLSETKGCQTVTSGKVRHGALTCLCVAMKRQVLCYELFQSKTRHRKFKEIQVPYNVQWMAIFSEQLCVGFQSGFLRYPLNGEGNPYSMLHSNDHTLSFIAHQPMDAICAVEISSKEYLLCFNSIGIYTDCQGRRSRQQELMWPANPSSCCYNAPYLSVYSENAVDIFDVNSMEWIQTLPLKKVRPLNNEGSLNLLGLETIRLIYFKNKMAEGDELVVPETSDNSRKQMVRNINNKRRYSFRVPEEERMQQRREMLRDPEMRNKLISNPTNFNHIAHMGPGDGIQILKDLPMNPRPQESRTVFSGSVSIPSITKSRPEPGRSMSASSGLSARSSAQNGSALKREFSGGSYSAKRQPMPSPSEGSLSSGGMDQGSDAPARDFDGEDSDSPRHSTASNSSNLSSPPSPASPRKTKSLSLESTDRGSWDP
T7 sequence (P42685 whole entry): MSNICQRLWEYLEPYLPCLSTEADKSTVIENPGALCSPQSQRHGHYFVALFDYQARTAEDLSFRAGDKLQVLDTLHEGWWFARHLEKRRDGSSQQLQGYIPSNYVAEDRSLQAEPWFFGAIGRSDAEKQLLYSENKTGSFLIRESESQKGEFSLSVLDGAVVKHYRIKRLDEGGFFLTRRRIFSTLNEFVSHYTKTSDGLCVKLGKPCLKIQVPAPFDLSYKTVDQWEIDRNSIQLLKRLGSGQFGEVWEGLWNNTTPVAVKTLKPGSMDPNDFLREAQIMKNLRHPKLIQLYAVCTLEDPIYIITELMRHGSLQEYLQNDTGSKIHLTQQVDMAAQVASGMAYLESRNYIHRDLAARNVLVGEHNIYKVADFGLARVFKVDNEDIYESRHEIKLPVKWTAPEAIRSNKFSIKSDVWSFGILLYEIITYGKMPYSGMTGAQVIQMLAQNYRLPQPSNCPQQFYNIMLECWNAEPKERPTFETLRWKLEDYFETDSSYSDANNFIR
T8 sequence (P07949 29-1114): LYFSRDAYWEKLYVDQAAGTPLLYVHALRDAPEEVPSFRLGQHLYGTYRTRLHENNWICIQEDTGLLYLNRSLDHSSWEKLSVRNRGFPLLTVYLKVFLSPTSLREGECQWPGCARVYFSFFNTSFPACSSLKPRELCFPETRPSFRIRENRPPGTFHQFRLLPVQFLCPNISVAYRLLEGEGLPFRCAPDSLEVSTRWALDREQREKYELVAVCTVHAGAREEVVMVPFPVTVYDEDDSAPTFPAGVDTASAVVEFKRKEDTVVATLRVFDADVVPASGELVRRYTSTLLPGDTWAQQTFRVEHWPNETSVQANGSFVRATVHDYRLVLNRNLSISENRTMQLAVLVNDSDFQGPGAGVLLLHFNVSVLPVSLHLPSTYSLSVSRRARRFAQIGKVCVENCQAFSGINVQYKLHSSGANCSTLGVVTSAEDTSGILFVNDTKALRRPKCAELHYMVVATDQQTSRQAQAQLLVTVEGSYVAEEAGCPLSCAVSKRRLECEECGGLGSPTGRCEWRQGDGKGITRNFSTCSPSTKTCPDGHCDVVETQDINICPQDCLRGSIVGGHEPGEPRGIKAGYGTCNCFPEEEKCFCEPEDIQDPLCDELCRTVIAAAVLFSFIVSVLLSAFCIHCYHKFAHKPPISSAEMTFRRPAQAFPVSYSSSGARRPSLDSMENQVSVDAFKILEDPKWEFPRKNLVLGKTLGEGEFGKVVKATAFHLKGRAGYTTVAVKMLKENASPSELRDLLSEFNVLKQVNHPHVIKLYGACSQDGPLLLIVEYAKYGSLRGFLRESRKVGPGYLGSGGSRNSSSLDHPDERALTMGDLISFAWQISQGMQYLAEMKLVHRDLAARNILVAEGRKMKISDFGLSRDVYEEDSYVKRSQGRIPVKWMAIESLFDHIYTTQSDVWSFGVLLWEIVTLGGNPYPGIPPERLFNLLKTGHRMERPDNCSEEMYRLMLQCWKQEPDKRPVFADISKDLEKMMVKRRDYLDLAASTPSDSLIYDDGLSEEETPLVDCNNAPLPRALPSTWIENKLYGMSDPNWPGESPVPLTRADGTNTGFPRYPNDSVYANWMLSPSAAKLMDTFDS

SMILES | remaining binding at 1 µM [1] | remaining binding at 1 µM ([2]; ABL1(F317I)-nonphosphorylated) | remaining binding at 1 µM ([2]; ABL1(F317I)-phosphorylated) | remaining binding at 1 µM [3] | remaining binding at 1 µM [4] | remaining binding at 1 µM [5] | remaining binding at 1 µM [6] | remaining binding at 1 µM [7] | remaining binding at 1 µM [8] | remaining binding at 1 µM [9] | remaining binding at 1 µM [10]
CCNc1nc(Nc2ccc(C(=O)N3CCC(N4CCOCC4)CC3)cc2OC)nc2[nH]cc(C(F)(F)F)c12 [Example 104, (4-((4-(ethylamino)-5-(trifluoromethyl)-7H-pyrrolo[2,3-d]pyrimidine-2-yl)amino)-3-methoxyphenyl)(4-morpholinopiperidine-1-yl)methanone] | 74% | 56% | 29% | 100% | 4% | 100% | 20% | 77% | 98% | 100% | 100%
CNc1nc(Nc2ccc(C(=O)N3CCOCC3)cc2OC)nc2[nH]cc(C#N)c12 [Example 1, 2-((2-methoxy-4-(morpholine-4-carbonyl)phenyl)amino)-4-(methylamino)-7H-pyrrolo[2,3-d]pyrimidine-5-carbonitrile] | 47% | 99% | 54% | 100% | 70% | 97% | 65% | 97% | 97% | 71% | 64%
CC1(Nc2nc(Nc3cnn([C@H]4CCN(C5COC5)C[C@@H]4F)c3Cl)nc3[nH]cc(C#N)c23)CC1 [Example 52, 2-((5-chloro-1-((3S,4S)-3-fluoro-1-(oxetane-3-yl)piperidine-4-yl)-1H-pyrazole-4-yl)amino)((1-methylcyclopropyl)amino)-7H-pyrrolo[2,3-d]pyrimidine-5-carbonitrile] | 0.05% | 25% | 7.6% | 100% | 27% | 59% | 5.7% | 49% | 0% | 100% | 0%
